We go through one compound from ChEMBL document CHEMBL5634085, “Design, synthesis and antitrypanosomatid activity of 2-nitroimidazole-3,5-disubstituted isoxazole compounds based on benznidazole” (Eur J Med Chem, 2023).

Series [1] can be described thus: Toxicity in BALB/c mouse infected with Trypanosoma cruzi Y trypomastigotes assessed as body weight gain at 100 mg/kg/day, po administrated via gavage for consecutive 10 days. It counts as organism-based. The note with it: in vivo, 240 h, time 10 day.
The nature of series [2]: Selectivity index, ratio of CC50 for monkey LLC-MK2 cells to IC50 for Trypanosoma cruzi Tulahuen lacZ expressing beta-galactosidase amastigotes infected monkey LLC-MK2 cells. It is filed as toxicity. The note with it: read-out: Ratio CC50/IC50.
Series [3] is described as follows: Toxicity in BALB/c mouse infected with Trypanosoma cruzi Y trypomastigotes assessed as body weight gain at 25 mg/kg/day, po administrated via gavage for consecutive 10 days. It is filed as organism-based. The note with it: in vivo, 240 h, time 10 day.
The nature of series [4]: Cytotoxicity against monkey LLC-MK2 cells incubated for 72 hrs by MTT assay. It counts as toxicity, cell-based, Macaca mulatta. The note with it: rhesus monkey. On the technique in general: Tetrazolium assays rely on reduction of a dye to a coloured formazan, in cell work by metabolically active cells.
The subject of series [5] is Trypanosoma cruzi. Kind of series: Antitrypanosomal activity against Trypanosoma cruzi Y strain trypomastigotes infection induced hepatosplenomegaly BALB/c male mouse model assessed as change in infection-mediated liver weight at 25 mg/kg/day, po administrated for consecutive 10 days. It counts as functional, organism-based. As to conditions: time 10.0 day.
Series [6] relates to Trypanosoma cruzi. The experiment in a line: Binding affinity to Trypanosoma cruzi type I nitro reductase at 25 uM incubated for 5 mins in the presence of NADH by microplate reader analysis.
For series [7], the system named is Trypanosoma cruzi. Kind of series: Antitrypanosomal activity against Trypanosoma cruzi Tulahuen lacZ expressing beta-galactosidase amastigotes infected in monkey LLC-MK2 cells assessed as inhibition of amastigotes pre-infected in cells for 48 hrs followed by compound addition and measured after 72 hrs by CPRG reagent based absorbance analysis. It counts as functional, organism-based.

Series [8] concerns Trypanosoma cruzi. Kind of series: Antitrypanosomal activity against Trypanosoma cruzi Y strain trypomastigotes infection induced hepatosplenomegaly BALB/c male mouse model assessed as change in infection-mediated spleen weight at 25 mg/kg/day, po administrated for consecutive 10 days. It counts as functional, organism-based. The note with it: time 10.0 day.
The nature of series [9]: Toxicity in BALB/c mouse infected with Trypanosoma cruzi Y trypomastigotes assessed as animal survival at 25 mg/kg/day, po administrated via gavage for consecutive 10 days relative to control. It counts as organism-based. As to conditions: in vivo, time 10 day.
The nature of series [10]: Toxicity in BALB/c mouse infected with Trypanosoma cruzi Y trypomastigotes assessed as animal survival at 100 mg/kg/day, po administrated via gavage for consecutive 10 days relative to control. As to conditions: in vivo, time 10 day. It is filed as organism-based.
The test system of series [11] is Trypanosoma cruzi. Kind of series: Antitrypanosomal activity against Trypanosoma cruzi Y trypomastigotes infected in BALB/c mouse model assessed as reduction of parasite load in cardiac tissue by measuring reduction in DNA copy number at 25 to 100 mg/kg/day, po administered via gavage observed on 11 day of post infection by qPCR analysis relative to control. It counts as functional. The note with it: dose 25-100 mg/kg/day. Further details: scale not given: the % may be the effect or the level left. For orientation: Real-time PCR tracks product formation cycle by cycle.

Series [12] deals with Trypanosoma cruzi. Kind of series: Antitrypanosomal activity against Trypanosoma cruzi Y trypomastigotes infected in BALB/c mouse model assessed as reduction of parasitemia level at 25 mg/kg/day, po administered via gavage for consecutive 10 days and measured on day 5,7,9 and 11. It is filed as functional, organism-based. As to conditions: time 11.0 day.
Series [13] relates to Trypanosoma cruzi. The experiment in a line: Binding affinity to Trypanosoma cruzi type I nitro reductase at 10 uM incubated for 5 mins in the presence of NADH by microplate reader analysis.
For series [14], the system named is Trypanosoma cruzi. Kind of series: Effect on infection-mediated heart weight in Trypanosoma cruzi Y strain trypomastigotes infected in BALB/c mouse model at 100 mg/kg/day, po administered for consecutive 10 days. It is filed as functional, organism-based. The note with it: time 10.0 day.
In series [15] the test system is Trypanosoma cruzi. The experiment in a line: Effect on infection-mediated heart weight in Trypanosoma cruzi Y strain trypomastigotes infected in BALB/c mouse model at 25 mg/kg/day, po administered for consecutive 10 days. The note with it: time 10.0 day. It counts as functional, organism-based.

Structures are written as SMILES. Active and inactive are the calls of the source. No cut-off for these calls is given here. A value given as a limit tells only on which side of the number the result lay.

`O=C(Cn1ccnc1[N+](=O)[O-])NCc1ccccc1` [BENZNIDAZOLE]: the Activity result in [1] is recorded as “Non-Toxic”; in series [3] it was “Non-Toxic”; in [11], 99%. For the same compound, in series [2], the selectivity ratio is greater than 9.3. Besides, the half-maximal cytotoxic concentration (CC50) (usually the concentration giving 50% cytotoxicity) at 72 h in series [4] is greater than 50 µM. Moreover, the result in series [5] and in series [8] was Active. Also, the Kobs in series [6] was determined as 0.3 s⁻¹; in series [13], 0.13 s⁻¹. Also, in series [7], the IC50 (commonly the point on the concentration scale where inhibition reaches its midpoint) was 3.8 µM. The survival at 240 h in series [9] and in series [10] was 100% in each case. Besides, the result in series [12], in [14] and in [15] was inactive.
